In patent US6492422B2, “Tricyclic sulfonamides and their derivatives as inhibitors of matrix metalloproteinases” (Warner-Lambert Company, priority 1998, dated 2002):

Molecular target: MMP-14CD (membrane-type MMP-1) (Homo sapiens, UniProt P50281)
Assay: MMP inhibition, thiopeptolide substrate, MMP-14CD
Format: biochemical
Details: thiopeptolide substrate Ac-Pro-Leu-Gly-thioester-Leu-Leu-Gly-OEt; catalytic domain
Description: (§1) Experiments were carried out with the full-length and catalytic domains of the proteinases. […] IC50 values were determined using a thiopeptolide substrate, Ac-Pro-Leu-Gly-thioester-Leu-Leu-Gly-OEt (Ye Q.-Z., Johnson L. L., Hupe D. J., and Baragi V., “Purification and Characterization of the Human Stromelysin Catalytic Domain Expressed in Escherichia coli,” Biochemistry, 1992;31:11231-11235; Ye Q.-Z., Johnson L. L., Yu A. E., and Hupe D., “Reconstructed 19 kDa catalytic domain of gelatinase A is an active proteinase,” i Biochemistry, 1995;34:47024708.) MMP-13CD was expressed from a synthetic gene and purified from Escherichia coli cell culture according to a previously described method (Ye Q.-Z., Johnson L. L., and Baragi V., “Gene synthesis and expression in E. coli for PUMP, a human matrix metalloproteinase,” Biochemical and Biophysical Research Communications, 1992;186:143-149).

SMILES	IC50 [µM]
O=C(O)C[C@H](NS(=O)(=O)c1ccc2c3c(oc2c1)CCCC3)C(=O)O [Example 3, (S) 2-(6,7,8,9-Tetrahydro-dibenzofuran-3-sulfonylamino)-succinic Acid]	0.048
CC(C)[C@H](NS(=O)(=O)c1ccc2c3c(oc2c1)CCCC3)C(=O)O [Example 2, (S) 3-Methyl-2-(6,7,8,9-tetrahydro-dibenzofuran-3-sulfonylamino)-butyric Acid]	0.155
CC(C)[C@@H](NS(=O)(=O)c1ccc2c3c(oc2c1)CCCC3)C(=O)O [Example 1, (R) 3-Methyl-2-(6,7,8,9-tetrahydro-dibenzofuran-3-sulfonylamino)-butyric Acid]	0.38
O=C(O)[C@H](CCc1ccccc1)NS(=O)(=O)c1ccc2c3c(oc2c1)CCCC3 [Example 4, (S) 4-Phenyl-2-(6,7,8,9-tetrahydro-dibenzofuran-3-sulfonylamino)-butyric Acid]	0.064

Molecular target: T1, MMP-9FL (gelatinase B full length enzyme) (Homo sapiens, UniProt P14780)
T1 construct: MMP-9-FL (gelatinase B full length enzyme)
T1 sequence (P14780 94-707): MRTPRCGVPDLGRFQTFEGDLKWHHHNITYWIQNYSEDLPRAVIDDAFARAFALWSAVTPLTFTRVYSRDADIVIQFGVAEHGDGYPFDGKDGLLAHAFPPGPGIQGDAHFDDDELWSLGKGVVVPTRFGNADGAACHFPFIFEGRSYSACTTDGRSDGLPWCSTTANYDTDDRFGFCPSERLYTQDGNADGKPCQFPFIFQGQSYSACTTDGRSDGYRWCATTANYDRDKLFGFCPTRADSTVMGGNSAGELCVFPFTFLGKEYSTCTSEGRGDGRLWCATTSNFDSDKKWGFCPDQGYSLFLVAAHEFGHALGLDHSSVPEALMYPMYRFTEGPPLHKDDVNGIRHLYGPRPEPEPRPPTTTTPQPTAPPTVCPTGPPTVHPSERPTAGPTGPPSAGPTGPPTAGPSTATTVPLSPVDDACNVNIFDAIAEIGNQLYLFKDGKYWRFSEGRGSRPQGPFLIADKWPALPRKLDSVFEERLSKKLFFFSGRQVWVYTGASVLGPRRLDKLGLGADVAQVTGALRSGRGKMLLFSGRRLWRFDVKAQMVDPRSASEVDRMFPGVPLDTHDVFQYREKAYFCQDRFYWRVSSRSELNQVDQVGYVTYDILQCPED
Assay: MMP inhibition, thiopeptolide substrate, MMP-9FL
Format: biochemical
Details: thiopeptolide substrate Ac-Pro-Leu-Gly-thioester-Leu-Leu-Gly-OEt
Description: as §1

SMILES	IC50 [µM]
O=C(O)C[C@H](NS(=O)(=O)c1ccc2c3c(oc2c1)CCCC3)C(=O)O [Example 3, (S) 2-(6,7,8,9-Tetrahydro-dibenzofuran-3-sulfonylamino)-succinic Acid]	100
CC(C)[C@H](NS(=O)(=O)c1ccc2c3c(oc2c1)CCCC3)C(=O)O [Example 2, (S) 3-Methyl-2-(6,7,8,9-tetrahydro-dibenzofuran-3-sulfonylamino)-butyric Acid]	100
CC(C)[C@@H](NS(=O)(=O)c1ccc2c3c(oc2c1)CCCC3)C(=O)O [Example 1, (R) 3-Methyl-2-(6,7,8,9-tetrahydro-dibenzofuran-3-sulfonylamino)-butyric Acid]	30
O=C(O)[C@H](CCc1ccccc1)NS(=O)(=O)c1ccc2c3c(oc2c1)CCCC3 [Example 4, (S) 4-Phenyl-2-(6,7,8,9-tetrahydro-dibenzofuran-3-sulfonylamino)-butyric Acid]	28

Molecular target: T2, MMP-2FL (gelatinase A full length enzyme) (Homo sapiens, UniProt P08253)
T2 construct: Experiments were carried out with the full-length and catalytic domains of the proteinases
T2 sequence (P08253 110-660): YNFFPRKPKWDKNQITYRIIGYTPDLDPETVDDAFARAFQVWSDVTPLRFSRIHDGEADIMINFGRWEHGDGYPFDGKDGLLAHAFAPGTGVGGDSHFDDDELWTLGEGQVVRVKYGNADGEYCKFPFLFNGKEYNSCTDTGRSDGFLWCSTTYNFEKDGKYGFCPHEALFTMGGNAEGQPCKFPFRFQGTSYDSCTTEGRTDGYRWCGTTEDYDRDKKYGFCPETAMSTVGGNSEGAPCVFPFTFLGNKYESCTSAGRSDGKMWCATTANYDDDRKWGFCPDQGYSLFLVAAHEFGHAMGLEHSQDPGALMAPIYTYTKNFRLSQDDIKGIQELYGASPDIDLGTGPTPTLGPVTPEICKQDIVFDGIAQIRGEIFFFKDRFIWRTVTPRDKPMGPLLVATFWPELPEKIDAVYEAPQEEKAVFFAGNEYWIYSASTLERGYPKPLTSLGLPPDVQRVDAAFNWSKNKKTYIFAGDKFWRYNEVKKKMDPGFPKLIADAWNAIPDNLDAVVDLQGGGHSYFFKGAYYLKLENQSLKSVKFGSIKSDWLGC
Assay: MMP inhibition, thiopeptolide substrate, MMP-2FL
Format: biochemical
Details: thiopeptolide substrate Ac-Pro-Leu-Gly-thioester-Leu-Leu-Gly-OEt
Description: as §1

SMILES	IC50 [µM]
O=C(O)C[C@H](NS(=O)(=O)c1ccc2c3c(oc2c1)CCCC3)C(=O)O [Example 3, (S) 2-(6,7,8,9-Tetrahydro-dibenzofuran-3-sulfonylamino)-succinic Acid]	0.45
CC(C)[C@H](NS(=O)(=O)c1ccc2c3c(oc2c1)CCCC3)C(=O)O [Example 2, (S) 3-Methyl-2-(6,7,8,9-tetrahydro-dibenzofuran-3-sulfonylamino)-butyric Acid]	0.43
CC(C)[C@@H](NS(=O)(=O)c1ccc2c3c(oc2c1)CCCC3)C(=O)O [Example 1, (R) 3-Methyl-2-(6,7,8,9-tetrahydro-dibenzofuran-3-sulfonylamino)-butyric Acid]	0.335
O=C(O)[C@H](CCc1ccccc1)NS(=O)(=O)c1ccc2c3c(oc2c1)CCCC3 [Example 4, (S) 4-Phenyl-2-(6,7,8,9-tetrahydro-dibenzofuran-3-sulfonylamino)-butyric Acid]	0.15

Molecular target: T3, MMP-7FL (matrilysin full length enzyme) (Homo sapiens, UniProt P09237)
T3 construct: MMP-7FL (matrilysin full length enzyme)
T3 sequence (P09237 95-267): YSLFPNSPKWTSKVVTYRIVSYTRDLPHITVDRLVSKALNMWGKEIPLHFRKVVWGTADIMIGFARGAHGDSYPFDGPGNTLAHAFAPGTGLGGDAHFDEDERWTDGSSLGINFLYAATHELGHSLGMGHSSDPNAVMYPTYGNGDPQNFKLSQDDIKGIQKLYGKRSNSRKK
Assay: MMP inhibition, thiopeptolide substrate, MMP-7FL
Format: biochemical
Details: thiopeptolide substrate Ac-Pro-Leu-Gly-thioester-Leu-Leu-Gly-OEt
Description: as §1

SMILES	IC50 [µM]
O=C(O)C[C@H](NS(=O)(=O)c1ccc2c3c(oc2c1)CCCC3)C(=O)O [Example 3, (S) 2-(6,7,8,9-Tetrahydro-dibenzofuran-3-sulfonylamino)-succinic Acid]	3.2
CC(C)[C@H](NS(=O)(=O)c1ccc2c3c(oc2c1)CCCC3)C(=O)O [Example 2, (S) 3-Methyl-2-(6,7,8,9-tetrahydro-dibenzofuran-3-sulfonylamino)-butyric Acid]	7.5
CC(C)[C@@H](NS(=O)(=O)c1ccc2c3c(oc2c1)CCCC3)C(=O)O [Example 1, (R) 3-Methyl-2-(6,7,8,9-tetrahydro-dibenzofuran-3-sulfonylamino)-butyric Acid]	82
O=C(O)[C@H](CCc1ccccc1)NS(=O)(=O)c1ccc2c3c(oc2c1)CCCC3 [Example 4, (S) 4-Phenyl-2-(6,7,8,9-tetrahydro-dibenzofuran-3-sulfonylamino)-butyric Acid]	2.3

Molecular target: T4, MMP-13CD (collagenase-3 catalytic domain) (Homo sapiens, UniProt P45452)
T4 construct: MMP-13CD (collagenase-3 catalytic domain); made in house; host or cells: Escherichia coli
Assay: MMP inhibition, thiopeptolide substrate, MMP-13CD
Format: biochemical
Details: thiopeptolide substrate Ac-Pro-Leu-Gly-thioester-Leu-Leu-Gly-OEt; catalytic domain expressed in Escherichia coli
Description: as §1

SMILES	IC50 [µM]
O=C(O)C[C@H](NS(=O)(=O)c1ccc2c3c(oc2c1)CCCC3)C(=O)O [Example 3, (S) 2-(6,7,8,9-Tetrahydro-dibenzofuran-3-sulfonylamino)-succinic Acid]	0.97
CC(C)[C@H](NS(=O)(=O)c1ccc2c3c(oc2c1)CCCC3)C(=O)O [Example 2, (S) 3-Methyl-2-(6,7,8,9-tetrahydro-dibenzofuran-3-sulfonylamino)-butyric Acid]	2.3
CC(C)[C@@H](NS(=O)(=O)c1ccc2c3c(oc2c1)CCCC3)C(=O)O [Example 1, (R) 3-Methyl-2-(6,7,8,9-tetrahydro-dibenzofuran-3-sulfonylamino)-butyric Acid]	3.45
O=C(O)[C@H](CCc1ccccc1)NS(=O)(=O)c1ccc2c3c(oc2c1)CCCC3 [Example 4, (S) 4-Phenyl-2-(6,7,8,9-tetrahydro-dibenzofuran-3-sulfonylamino)-butyric Acid]	1.34

Molecular target: T5, MMP-3CD (stromelysin-1 catalytic domain) (Homo sapiens, UniProt P08254)
T5 construct: MMP-3CD (stromelysin-1 catalytic domain)
T5 sequence (P08254 100-272 limits assumed): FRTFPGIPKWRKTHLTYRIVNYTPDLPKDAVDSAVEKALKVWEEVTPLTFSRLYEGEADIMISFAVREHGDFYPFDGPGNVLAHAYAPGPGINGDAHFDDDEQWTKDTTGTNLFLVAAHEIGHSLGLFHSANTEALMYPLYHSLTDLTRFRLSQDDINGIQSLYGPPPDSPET
Assay: MMP inhibition, thiopeptolide substrate, MMP-3CD
Format: biochemical
Details: thiopeptolide substrate Ac-Pro-Leu-Gly-thioester-Leu-Leu-Gly-OEt
Description: as §1

SMILES	IC50 [µM]
O=C(O)C[C@H](NS(=O)(=O)c1ccc2c3c(oc2c1)CCCC3)C(=O)O [Example 3, (S) 2-(6,7,8,9-Tetrahydro-dibenzofuran-3-sulfonylamino)-succinic Acid]	0.0056
CC(C)[C@H](NS(=O)(=O)c1ccc2c3c(oc2c1)CCCC3)C(=O)O [Example 2, (S) 3-Methyl-2-(6,7,8,9-tetrahydro-dibenzofuran-3-sulfonylamino)-butyric Acid]	0.0245
CC(C)[C@@H](NS(=O)(=O)c1ccc2c3c(oc2c1)CCCC3)C(=O)O [Example 1, (R) 3-Methyl-2-(6,7,8,9-tetrahydro-dibenzofuran-3-sulfonylamino)-butyric Acid]	0.046
O=C(O)[C@H](CCc1ccccc1)NS(=O)(=O)c1ccc2c3c(oc2c1)CCCC3 [Example 4, (S) 4-Phenyl-2-(6,7,8,9-tetrahydro-dibenzofuran-3-sulfonylamino)-butyric Acid]	0.0215

Molecular target: T6, MMP-1FL (collagenase-1 full length enzyme) (Homo sapiens, UniProt P03956)
T6 construct: MMP-IFL (collagenase-1 full length enzyme)
T6 sequence (P03956 100-469): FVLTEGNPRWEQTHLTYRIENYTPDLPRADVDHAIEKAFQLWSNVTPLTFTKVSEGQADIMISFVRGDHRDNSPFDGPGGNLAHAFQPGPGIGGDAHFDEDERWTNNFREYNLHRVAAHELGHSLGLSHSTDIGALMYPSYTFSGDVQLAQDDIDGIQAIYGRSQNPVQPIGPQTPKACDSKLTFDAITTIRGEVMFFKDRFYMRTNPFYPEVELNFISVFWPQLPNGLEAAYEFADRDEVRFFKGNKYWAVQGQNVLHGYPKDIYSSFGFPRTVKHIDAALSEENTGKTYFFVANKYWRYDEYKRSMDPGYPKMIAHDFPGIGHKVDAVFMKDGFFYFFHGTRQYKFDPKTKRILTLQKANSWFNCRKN
Assay: MMP inhibition, thiopeptolide substrate, MMP-1FL
Format: biochemical
Details: thiopeptolide substrate Ac-Pro-Leu-Gly-thioester-Leu-Leu-Gly-OEt
Description: as §1

SMILES	IC50 [µM]
O=C(O)C[C@H](NS(=O)(=O)c1ccc2c3c(oc2c1)CCCC3)C(=O)O [Example 3, (S) 2-(6,7,8,9-Tetrahydro-dibenzofuran-3-sulfonylamino)-succinic Acid]	16
CC(C)[C@H](NS(=O)(=O)c1ccc2c3c(oc2c1)CCCC3)C(=O)O [Example 2, (S) 3-Methyl-2-(6,7,8,9-tetrahydro-dibenzofuran-3-sulfonylamino)-butyric Acid]	6.05
CC(C)[C@@H](NS(=O)(=O)c1ccc2c3c(oc2c1)CCCC3)C(=O)O [Example 1, (R) 3-Methyl-2-(6,7,8,9-tetrahydro-dibenzofuran-3-sulfonylamino)-butyric Acid]	6.7
O=C(O)[C@H](CCc1ccccc1)NS(=O)(=O)c1ccc2c3c(oc2c1)CCCC3 [Example 4, (S) 4-Phenyl-2-(6,7,8,9-tetrahydro-dibenzofuran-3-sulfonylamino)-butyric Acid]	25

Molecular target: MMP-2CD (gelatinase A catalytic domain) (Homo sapiens, UniProt P08253)
Sequence (P08253 with tags, fused parts or gaps DEL222-396): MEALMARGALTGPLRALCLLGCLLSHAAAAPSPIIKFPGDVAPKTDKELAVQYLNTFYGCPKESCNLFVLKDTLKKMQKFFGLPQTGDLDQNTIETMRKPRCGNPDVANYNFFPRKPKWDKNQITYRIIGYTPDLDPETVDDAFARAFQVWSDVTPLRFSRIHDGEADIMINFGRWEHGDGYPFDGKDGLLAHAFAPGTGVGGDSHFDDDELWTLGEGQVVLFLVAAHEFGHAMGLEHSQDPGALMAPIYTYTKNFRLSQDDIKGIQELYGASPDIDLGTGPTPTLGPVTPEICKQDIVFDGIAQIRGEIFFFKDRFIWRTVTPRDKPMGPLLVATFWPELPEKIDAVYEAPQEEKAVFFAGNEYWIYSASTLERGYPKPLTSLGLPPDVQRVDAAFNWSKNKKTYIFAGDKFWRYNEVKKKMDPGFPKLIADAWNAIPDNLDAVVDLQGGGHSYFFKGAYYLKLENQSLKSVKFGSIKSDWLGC
Assay: MMP inhibition, thiopeptolide substrate, MMP-2CD
Format: biochemical
Details: thiopeptolide substrate Ac-Pro-Leu-Gly-thioester-Leu-Leu-Gly-OEt
Description: as §1

SMILES	IC50 [µM]
O=C(O)C[C@H](NS(=O)(=O)c1ccc2c3c(oc2c1)CCCC3)C(=O)O [Example 3, (S) 2-(6,7,8,9-Tetrahydro-dibenzofuran-3-sulfonylamino)-succinic Acid]	0.0167
CC(C)[C@H](NS(=O)(=O)c1ccc2c3c(oc2c1)CCCC3)C(=O)O [Example 2, (S) 3-Methyl-2-(6,7,8,9-tetrahydro-dibenzofuran-3-sulfonylamino)-butyric Acid]	0.034
CC(C)[C@@H](NS(=O)(=O)c1ccc2c3c(oc2c1)CCCC3)C(=O)O [Example 1, (R) 3-Methyl-2-(6,7,8,9-tetrahydro-dibenzofuran-3-sulfonylamino)-butyric Acid]	0.037
O=C(O)[C@H](CCc1ccccc1)NS(=O)(=O)c1ccc2c3c(oc2c1)CCCC3 [Example 4, (S) 4-Phenyl-2-(6,7,8,9-tetrahydro-dibenzofuran-3-sulfonylamino)-butyric Acid]	0.018

System: not given
Assay: not given
Details: not given

SMILES	melting point [°C]
O=C(O)C[C@H](NS(=O)(=O)c1ccc2c3c(oc2c1)CCCC3)C(=O)O [Example 3, (S) 2-(6,7,8,9-Tetrahydro-dibenzofuran-3-sulfonylamino)-succinic Acid]	176 to 179
CC(C)[C@H](NS(=O)(=O)c1ccc2c3c(oc2c1)CCCC3)C(=O)O [Example 2, (S) 3-Methyl-2-(6,7,8,9-tetrahydro-dibenzofuran-3-sulfonylamino)-butyric Acid]	162 to 165
O=C(O)[C@H](CCc1ccccc1)NS(=O)(=O)c1ccc2c3c(oc2c1)CCCC3 [Example 4, (S) 4-Phenyl-2-(6,7,8,9-tetrahydro-dibenzofuran-3-sulfonylamino)-butyric Acid]	167 to 169
